Results: US11524951B2, “2-(2,4,5-substituted-anilino)pyrimidine compounds” (AstraZeneca AB, priority 2011, dated 2022)

Experiments:
Format in all cases: cell-based
Exon19 deletion EGFR = biological target: T1, Exon19 deletion EGFR (Homo sapiens, UniProt P00533, DEL746-750); test: Exon19 deletion EGFR (activating single mutant) cellular phosphorylation assay; conditions: PC9 human lung cells (Exon 19 deletion EGFR); endogenous p-EGFR in cell lysates by ELISA; 2 h with compound; read-out: Assay 1 (IC50)
T1 construct: Assays to measure cellular phosphorylation of endogenous p-EGFR in cell lysates; endogenous in cells; host or cells: PC9 (human lung cell line)
T1 sequence (P00533 with tags, fused parts or gaps DEL746-750): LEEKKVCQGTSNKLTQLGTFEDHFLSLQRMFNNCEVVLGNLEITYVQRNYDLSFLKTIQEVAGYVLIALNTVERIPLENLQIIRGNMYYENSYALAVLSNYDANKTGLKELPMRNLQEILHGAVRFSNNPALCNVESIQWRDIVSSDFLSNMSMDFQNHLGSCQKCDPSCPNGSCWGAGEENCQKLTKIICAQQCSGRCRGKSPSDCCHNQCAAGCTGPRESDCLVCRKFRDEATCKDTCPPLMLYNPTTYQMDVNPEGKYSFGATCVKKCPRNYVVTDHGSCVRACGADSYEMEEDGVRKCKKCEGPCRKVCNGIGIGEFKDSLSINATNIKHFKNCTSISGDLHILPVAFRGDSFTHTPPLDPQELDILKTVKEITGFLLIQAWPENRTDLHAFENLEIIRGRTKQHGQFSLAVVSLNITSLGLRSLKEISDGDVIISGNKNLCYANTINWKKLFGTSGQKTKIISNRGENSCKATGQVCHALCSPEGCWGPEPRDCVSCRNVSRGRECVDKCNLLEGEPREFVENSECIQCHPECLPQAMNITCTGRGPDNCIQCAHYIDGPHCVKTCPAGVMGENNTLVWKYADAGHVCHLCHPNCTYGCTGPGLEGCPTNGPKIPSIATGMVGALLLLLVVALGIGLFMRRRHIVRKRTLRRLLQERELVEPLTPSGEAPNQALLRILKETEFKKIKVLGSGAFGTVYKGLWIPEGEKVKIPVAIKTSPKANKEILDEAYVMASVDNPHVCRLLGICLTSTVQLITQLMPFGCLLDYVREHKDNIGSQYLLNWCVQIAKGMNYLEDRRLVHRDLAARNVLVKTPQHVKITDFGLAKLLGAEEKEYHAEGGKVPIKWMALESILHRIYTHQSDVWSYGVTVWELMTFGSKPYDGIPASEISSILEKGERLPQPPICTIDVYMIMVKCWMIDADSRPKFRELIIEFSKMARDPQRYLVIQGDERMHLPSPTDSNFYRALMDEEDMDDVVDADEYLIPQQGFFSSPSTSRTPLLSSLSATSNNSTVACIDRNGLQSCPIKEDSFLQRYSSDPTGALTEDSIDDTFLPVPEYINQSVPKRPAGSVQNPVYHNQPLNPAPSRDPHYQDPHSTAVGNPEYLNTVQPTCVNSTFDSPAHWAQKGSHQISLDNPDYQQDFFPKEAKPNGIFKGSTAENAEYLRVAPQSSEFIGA
Experimental: Assay 1: Exon19 Deletion EGFR (Activating Single Mutant) Cellular Phosphorylation Assay
The human lung cell line PC9 (Exon 19 deletion EGFR) were obtained from the American type Culture Collection. […] Cells were grown in a humidified incubator at 37° C. with 5% CO2. Assays to measure cellular phosphorylation of endogenous p-EGFR in cell lysates were carried out according to the protocol described in the R&D Systems DuoSet IC Human Phospho-EGF R ELISA (R&D Systems catalogue number #DYC1095). 40 μL of cells were seeded (10000 cells/well) in growth medium in Corning black, clear-bottomed 384-well plates and incubated at 37° C. with 5% CO2 overnight. […] Plates were incubated for a further 2 h, then following aspiration of medium, 40 μL 1× lysis buffer was added to each well. Greiner black high bind 384-well plates were coated with capture antibody and then blocked with 3% BSA. Following removal of block, […], of lysate were transferred to the Greiner black high bind 384-well plates and incubated for 2 hours. Following aspiration and washing of the plates with PBS, 20 μL of detection antibody were added and incubated for 2 hours. […] The data obtained with each compound was exported into a suitable software package (such as Origin) to perform curve fitting analysis.

L858R/T790M EGFR = biological target: T2, L858R/T790M EGFR (Homo sapiens, UniProt P00533, L858R/T790M); test: L858R/T790M EGFR (double mutant) cellular phosphorylation assay; conditions: NCI-H1975 human lung cells; endogenous p-EGFR in cell lysates by ELISA; 2 h with compound
T2 construct: Assays to measure cellular phosphorylation of endogenous p-EGFR in cell lysates; endogenous in cells; host or cells: NCI-H1975 (human lung cell line)
T2 sequence (P00533 25-1210 T790M/L858R): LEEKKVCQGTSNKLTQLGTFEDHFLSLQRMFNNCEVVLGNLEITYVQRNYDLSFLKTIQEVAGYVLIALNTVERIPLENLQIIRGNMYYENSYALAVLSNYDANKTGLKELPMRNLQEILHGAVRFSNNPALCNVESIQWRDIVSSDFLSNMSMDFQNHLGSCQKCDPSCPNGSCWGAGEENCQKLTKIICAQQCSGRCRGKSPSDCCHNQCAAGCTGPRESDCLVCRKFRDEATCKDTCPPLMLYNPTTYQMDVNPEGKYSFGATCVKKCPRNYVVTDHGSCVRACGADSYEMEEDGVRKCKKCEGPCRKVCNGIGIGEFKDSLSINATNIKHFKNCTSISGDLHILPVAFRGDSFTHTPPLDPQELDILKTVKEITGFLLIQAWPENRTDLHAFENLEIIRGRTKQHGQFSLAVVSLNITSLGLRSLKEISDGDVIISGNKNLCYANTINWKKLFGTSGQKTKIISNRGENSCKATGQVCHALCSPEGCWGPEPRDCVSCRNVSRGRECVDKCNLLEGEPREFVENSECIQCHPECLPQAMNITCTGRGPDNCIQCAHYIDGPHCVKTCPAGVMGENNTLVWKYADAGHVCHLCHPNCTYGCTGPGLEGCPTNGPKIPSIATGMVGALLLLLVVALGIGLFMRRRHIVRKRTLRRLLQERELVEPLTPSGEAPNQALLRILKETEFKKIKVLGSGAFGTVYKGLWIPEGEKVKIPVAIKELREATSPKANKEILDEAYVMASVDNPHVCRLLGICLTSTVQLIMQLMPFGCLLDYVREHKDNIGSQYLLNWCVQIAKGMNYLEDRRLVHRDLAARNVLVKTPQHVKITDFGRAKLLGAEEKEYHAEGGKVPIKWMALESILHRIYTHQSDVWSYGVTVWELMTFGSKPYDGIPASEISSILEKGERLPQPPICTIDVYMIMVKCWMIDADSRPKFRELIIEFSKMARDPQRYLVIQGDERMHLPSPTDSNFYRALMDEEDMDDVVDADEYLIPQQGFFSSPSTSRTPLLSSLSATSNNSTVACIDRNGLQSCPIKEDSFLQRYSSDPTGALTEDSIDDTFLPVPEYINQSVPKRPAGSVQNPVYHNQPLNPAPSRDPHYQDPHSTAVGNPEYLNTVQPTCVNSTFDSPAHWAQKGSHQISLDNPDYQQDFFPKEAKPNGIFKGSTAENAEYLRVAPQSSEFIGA
Experimental: Assay 2: L858R/T790M EGFR (Double Mutant) Cellular Phosphorylation Assay
The human lung cell lines NCI-H1975 were obtained from the American type Culture Collection. […] Cells were grown in a humidified incubator at 37° C. with 5% CO2.
Assays to measure cellular phosphorylation of endogenous p-EGFR in cell lysates were carried out according to the protocol described in the R&D Systems DuoSet IC Human Phospho-EGF R ELISA (R&D Systems catalogue number #DYC1095).
40 μL of cells were seeded (10000 cells/well) in growth medium in Corning black, clear-bottomed 384-well plates and incubated at 37° C. with 5% CO2 overnight. […] Plates were incubated for a further 2 h and following aspiration of medium, 40 μL 1× lysis buffer was added to each well. Greiner black high bind 384-well plates were coated with capture antibody and then blocked with 3% BSA. Following removal of block, 15 μL of lysate were transferred to the Greiner black high bind 384-well plates and incubated for 2 hours. Following aspiration and washing of the plates with PBS, 20 μL of detection antibody were added and incubated for 2 hours. […] 20 μL QuantaBlu stop solution were added to plates and fluorescence read on an Envision plate reader using
The data obtained with each compound was exported into a suitable software package (such as Origin) to perform curve fitting analysis.

Wild-type EGFR = biological target: T3, Wild-type EGFR (Homo sapiens, UniProt P00533); test: Wild-type EGFR cellular phosphorylation assay; conditions: LoVo human colon cells; endogenous p-EGFR in cell lysates by ELISA; 2 h with compound, then stimulated 100 ng/ml for 10 minutes; read-out: Assay 3 (IC50)
T3 construct: Assays to measure cellular phosphorylation of endogenous p-EGFR in cell lysates; endogenous in cells; host or cells: LoVo (human colon cell line)
T3 sequence (P00533 25-1210): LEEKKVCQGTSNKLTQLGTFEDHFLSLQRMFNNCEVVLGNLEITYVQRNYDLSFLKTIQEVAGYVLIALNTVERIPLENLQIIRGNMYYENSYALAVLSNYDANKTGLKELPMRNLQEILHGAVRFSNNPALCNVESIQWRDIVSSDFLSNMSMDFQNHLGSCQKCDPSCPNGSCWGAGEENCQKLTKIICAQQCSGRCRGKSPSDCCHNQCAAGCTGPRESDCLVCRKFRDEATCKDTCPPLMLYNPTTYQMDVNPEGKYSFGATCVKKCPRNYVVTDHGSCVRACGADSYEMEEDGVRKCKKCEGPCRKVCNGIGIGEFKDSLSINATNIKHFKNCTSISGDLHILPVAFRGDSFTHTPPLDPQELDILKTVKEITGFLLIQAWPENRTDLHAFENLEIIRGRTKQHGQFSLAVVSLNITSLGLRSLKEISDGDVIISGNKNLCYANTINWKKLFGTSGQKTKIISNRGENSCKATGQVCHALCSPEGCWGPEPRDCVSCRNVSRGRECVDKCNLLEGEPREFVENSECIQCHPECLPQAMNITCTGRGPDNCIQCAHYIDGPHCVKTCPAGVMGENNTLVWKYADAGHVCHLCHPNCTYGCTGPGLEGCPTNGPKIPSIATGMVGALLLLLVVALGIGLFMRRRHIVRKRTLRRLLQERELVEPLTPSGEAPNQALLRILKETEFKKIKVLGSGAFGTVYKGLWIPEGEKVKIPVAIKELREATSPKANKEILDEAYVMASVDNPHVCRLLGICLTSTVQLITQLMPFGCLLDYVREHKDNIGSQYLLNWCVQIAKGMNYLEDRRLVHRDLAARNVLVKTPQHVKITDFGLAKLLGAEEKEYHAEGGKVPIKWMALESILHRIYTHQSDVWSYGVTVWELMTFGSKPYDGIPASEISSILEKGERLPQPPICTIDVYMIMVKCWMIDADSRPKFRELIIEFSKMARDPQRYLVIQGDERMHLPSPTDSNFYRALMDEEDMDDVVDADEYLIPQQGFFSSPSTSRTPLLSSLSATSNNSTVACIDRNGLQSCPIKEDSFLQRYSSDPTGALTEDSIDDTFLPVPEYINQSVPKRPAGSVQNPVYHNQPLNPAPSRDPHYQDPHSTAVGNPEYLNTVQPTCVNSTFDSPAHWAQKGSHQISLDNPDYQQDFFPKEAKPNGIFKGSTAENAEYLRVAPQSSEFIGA
Experimental: Assay 3: Wild-Type EGFR Cellular Phosphorylation Assay
The human colon cell line LoVo were obtained from the American type Culture Collection. […] Cells were grown in a humidified incubator at 37° C. with 5% CO2. Assays to measure cellular phosphorylation of endogenous p-EGFR in cell lysates were carried out according to the protocol described in the R&D Systems DuoSet IC Human Phospho-EGF R ELISA (R&D Systems catalogue number #DYC1095). 40 μL of cells were seeded (15000 cells/well) in growth medium in Corning black, clear-bottomed 384-well plates and incubated at 37° C. with 5% CO2 overnight. […] Plates were incubated for a further 2 h then stimulated with 100 ng/ml for 10 minutes and following aspiration of medium, 40 μL 1× lysis buffer was added to each well. Greiner black high bind 384-well plates were coated with capture antibody and then blocked with 3% BSA. […] Following aspiration and washing of the plates with PBS, 20 μL of detection antibody were added and incubated for 2 hours. […] The data obtained with each compound was exported into a suitable software package (such as Origin) to perform curve fitting analysis.

SMILES | IC50 (Exon19 deletion EGFR) [µM] | IC50 (L858R/T790M EGFR) [µM] | IC50 (Wild-type EGFR) [µM]
C=CC(=O)Nc1cc(Nc2nccc(-c3cn(C)c4ccccc34)n2)c(OC)cc1N(C)CCNC [Example 60, N-(4-Methoxy-5-{[4-(1-methylindol-3-yl)pyrimidin-2-yl]amino}-2-[methyl-(2-methylaminoethyl)amino]phenyl)prop-2-enamide] | 0.0146 | 0.0489 | 0.624
C=CC(=O)Nc1cc(Nc2ncc(C#N)c(-c3c[nH]c4ccccc34)n2)c(OC)cc1N1CCN(C)CC1 [Example 27, N-(5-{[5-Cyano-4-(1H-indol-3-yl)pyrimidin-2-yl]amino}-4-methoxy-2-{4-methylpiperazin-1-yl}phenyl)prop-2-enamide] | 0.00561 | 0.0114 | 0.318
C=CC(=O)Nc1cc(Nc2nccc(-c3c[nH]c4ccccc34)n2)c(OC)cc1N1CC[C@@H](N(C)C)C1 [Example 57, N-(2-{(3R)-3-Dimethylaminopyrrolidin-1-yl}-5-{[4-(1H-indol-3-yl)pyrimidin-2-yl]amino}-4-methoxyphenyl)prop-2-enamide] | 0.00645 | 0.0145 | 0.0893
C=CC(=O)Nc1cc(Nc2ncc(Cl)c(-c3cn(C)c4ccccc34)n2)c(OC)cc1N1CC[C@@H](N(C)C)C1 [Example 21, N-(5-{[5-Chloro-4-(1-methylindol-3-yl)pyrimidin-2-yl]amino}-2-{(3R)-3-dimethylaminopyrrolidin-1-yl}-4-methoxyphenyl)prop-2-enamide] | 0.00295 | 0.00234 | 0.128
C=CC(=O)Nc1cc(Nc2nccc(-c3cnn4c3CCCC4)n2)c(OC)cc1N1CC2(CCCN2C)C1 [Example 47, N-(4-Methoxy-2-{8-methyl-2,8-diazaspiro[3.4]octan-2-yl}-5-{[4-(4,5,6,7-tetrahydropyrazolo[1,5-a]pyridin-3-yl)pyrimidin-2-yl]amino}phenyl)prop-2-enamide] | 0.194 | 0.119 | 15.4
C=CC(=O)Nc1cc(Nc2nccc(-c3cnn4ccccc34)n2)c(OC)cc1N1CC2(CCCN2C)C1 [Example 56, N-{4-Methoxy-2-[8-methyl-2,8-diazaspiro[3.4]octan-2-yl]-5-[(4-pyrazolo[1,5-a]pyridin-3-ylpyrimidin-2-yl)amino]phenyl}prop-2-enamide] | 0.0443 | 0.0292 | 3.5
C=CC(=O)Nc1cc(Nc2nccc(-c3cnn4ccccc34)n2)c(OC)cc1N1CC(N(C)C)C1 [Example 53, N-{2-(3-Dimethylaminoazetidin-1-yl)-4-methoxy-5-[(4-pyrazolo[1,5-a]pyridin-3-ylpyrimidin-2-yl)amino]phenyl}prop-2-enamide] | 0.0354 | 0.0282 | 2.64

The remaining lines, values ahead:

IC50 (Exon19 deletion EGFR) [µM] | IC50 (L858R/T790M EGFR) [µM] | IC50 (Wild-type EGFR) [µM] | SMILES
0.00326 | 0.000683 | 0.161 | C=CC(=O)Nc1cc(Nc2ncc(Cl)c(-c3cnn4ccccc34)n2)c(OC)cc1N1CC[C@@H]2CN(C)C[C@@H]21 [Example 7, N-{2-[(3aR,6aR)-5-Methyl-2,3,3a,4,6,6a-hexahydropyrrolo[3,2-c]pyrrol-1-yl]-5-[(5-chloro-4-pyrazolo[1,5-a]pyridin-3-ylpyrimidin-2-yl)amino]-4-methoxyphenyl}prop-2-enamide]
0.026 | 0.015 | 1.4 | C=CC(=O)Nc1cc(Nc2nccc(-c3cnn4ccccc34)n2)c(OC)cc1N1CC[C@@H](N(C)C)C1 [Example 52, N-{2-[(3R)-3-Dimethylaminopyrrolidin-1-yl]-4-methoxy-5-[(4-pyrazolo[1,5-a]pyridin-3-ylpyrimidin-2-yl)amino]phenyl}prop-2-enamide]
0.0285 | 0.0187 | 1.6 | C=CC(=O)Nc1cc(Nc2ncc(Cl)c(-c3cnn4ccccc34)n2)c(OC)cc1N1CCN(C(=O)[C@H](C)N)CC1 [Example 11, (S)—N-{2-[4-(2-Aminopropanoyl)piperazin-1-yl]-5-[(5-chloro-4-pyrazolo[1,5-a]pyridin-3-ylpyrimidin-2-yl)amino]-4-methoxyphenyl}prop-2-enamide]
0.11 | 0.041 | 7.4 | C=CC(=O)Nc1cc(Nc2nccc(-c3cnn4c3CCCC4)n2)c(OC)cc1C1=CCN(C)CC1 [Example 45, N-(4-Methoxy-2-{1-methyl-3,6-dihydro-2H-pyridin-4-yl}-5-{[4-(4,5,6,7-tetrahydropyrazolo[1,5-a]pyridin-3-yl)pyrimidin-2-yl]amino}phenyl)prop-2-enamide]
0.0361 | 0.00582 | 1.39 | C=CC(=O)Nc1cc(Nc2ncc(Cl)c(-c3cnn4ccccc34)n2)c(OC)cc1N1CC[C@H](N(C)C)C1 [Example 12, N-{5-[(5-Chloro-4-pyrazolo[1,5-a]pyridin-3-ylpyrimidin-2-yl)amino]-2-[(3S)-3-dimethylaminopyrrolidin-1-yl]-4-methoxyphenyl}prop-2-enamide]
0.00996 | 0.00282 | 0.874 | C=CC(=O)Nc1cc(Nc2ncc(Cl)c(-c3cnn4ccccc34)n2)c(OC)cc1C1=CCN(C)CC1 [Example 9, N-{5-[(5-Chloro-4-pyrazolo[1,5-a]pyridin-3-ylpyrimidin-2-yl)amino]-4-methoxy-2-[1-methyl-3,6-dihydro-2H-pyridin-4-yl]phenyl}prop-2-enamide]
0.013 | 0.00771 | 0.462 | C=CC(=O)Nc1cc(Nc2nccc(-c3cnn4ccccc34)n2)c(OC)cc1C1=CCN(C)CC1 [Example 51, N-{4-Methoxy-2-[1-methyl-3,6-dihydro-2H-pyridin-4-yl]-5-[(4-pyrazolo[1,5-a]pyridin-3-ylpyrimidin-2-yl)amino]phenyl}prop-2-enamide]
0.00761 | 0.00496 | 0.474 | C=CC(=O)Nc1cc(Nc2ncc(C)c(-c3cnn4ccccc34)n2)c(OC)cc1C1=CCN(C)CC1 [Example 1, N-{4-Methoxy-2-[1-methyl-3,6-dihydro-2H-pyridin-4-yl]-5-[(5-methyl-4-pyrazolo[1,5-a]pyridin-3-ylpyrimidin-2-yl)amino]phenyl}prop-2-enamide]
0.00708 | 0.0168 | 0.179 | C=CC(=O)Nc1cc(Nc2nccc(-c3c[nH]c4ccccc34)n2)c(OC)cc1N1CC(N(C)C)C1 [Example 58, N-(2-[3-Dimethylaminoazetidin-1-yl]-5-{[4-(1H-indol-3-yl)pyrimidin-2-yl]amino}-4-methoxyphenyl)prop-2-enamide]
0.129 | 0.0929 | 7.09 | C=CC(=O)Nc1cc(Nc2nccc(-c3cnn4c3CCCC4)n2)c(OC)cc1N1CC(N(C)C)C1 [Example 46, N-(2-{3-Dimethylaminoazetidin-1-yl}-4-methoxy-5-{[4-(4,5,6,7-tetrahydropyrazolo[1,5-a]pyridin-3-yl)pyrimidin-2-yl]amino}phenyl)prop-2-enamide]
